Patent US12472180B2, “Combinations for treatment of NAFLD/NASH and related diseases” (Pfizer Inc., priority 2020, dated 2025)
Structures can show the parent of a compound that is named as a salt.

Columns and labels:
[1] = system: ACC1, FASN, SCD1, PCSK9 and SREBP-1c; test: Hepatic lipogenic gene expression in Western diet fed rats (qPCR); format: in vivo, rat; settings: Compound A: ACC1, FASN (high dose only), SCD, but not PCSK9 and SREBP1
Method: (§1) A randomized, vehicle-controlled, 8-parallel arm study was conducted in male Sprague-Dawley rats (Charles River (Boston, MA)) to obtain circulating and hepatic TG levels. Standard laboratory conditions were used to house 96 rats (˜200 g); they were double housed and kept under 12:12-hour reverse light-dark schedule (lights off at 8:00 AM). Rats were randomized into chow or Western diet groups and dose groups upon arrival and were given a 14-day lead-in period on either standard rat chow or Western diet prior to the start of the study. Standard Laboratory Rodent chow diet, 5053, was from LabDiet (PMI, St Louis, Missouri). Western Diet, D12079Bi, was from Research Diets (New Brunswick, NJ).
On the last day of the study (Day 28), rats were sacrificed for tissue collection after a 4 hour fast, 2 hours post-dose: two hours post-dose, blood for determining plasma analytes was collected via lateral tail vein and then the animals were sacrificed by CO2 asphyxiation. Blood was transferred to BD Microtainer tubes coated with K2EDTA (PN365974), centrifuged at 4° C. and the plasma transferred to a 96-well microtitre plate and stored at −20° C. […]
Another portion of the pulverized liver was processed and analyzed for lipogenic gene expression. Rat taqman probes against ACC1, FASN, SCD1, PCSK9 and SREBP-1c were all assessed using Actb as housekeeping gene on qPCR.

[2] = system: Western diet fed Sprague Dawley rats; test: Plasma triglycerides (fed and fasted) in Western diet fed Sprague Dawley rats; format: in vivo, rat; settings: 4 hour fast
Method: as §1
(§2) For these studies, vehicle was prepared to make a 0.5% (wt/volume) of methyl cellulose (MC, Sigma Aldrich; 274429) in deionized water.
Fed plasma analytes: Blood for determining fed plasma TG concentrations was collected 2 hours post dose (2 hours into the dark cycle) via lateral tail vein, transferred to BD Microtainer tubes coated with dipotassium ethylenediaminetetraacetic acid (K2EDTA) (PN365974), and centrifuged at 4° C. The resulting plasma samples were then analyzed on a Siemens Chemistry XPT clinical analyzer (Malven, PA) using Siemens triglycerides_2 assay reagents (ref 10335892).
Fasted plasma analytes: Blood for determining fasted plasma TG was collected after a 4 hour fast, 2 hours post-dose (2 hours into the dark cycle) via lateral tail vein, transferred to BD Microtainer tubes coated with K2EDTA (PN365974), and centrifuged at 4° C. The resulting plasma samples were then analyzed on a Siemens Chemistry XPT clinical analyzer (Malven, PA) using Siemens triglycerides 2 assay reagents (ref 10335892).

αSMA and COL1A1 = test: Hepatic fibrogenesis gene expression in CDAHFD fed rats (qPCR); format: in vivo, rat; settings: A 5 mg/kg, D 30 mg/kg twice daily, 6 weeks
Source text: Standard laboratory conditions were used to house 60 rats (˜200 g); they were double housed and kept under 12:12-hour reverse light-dark schedule (lights off at 8:00 AM). Rats were fed choline deficient and high fat diet (CDAHFD) beginning 6-weeks prior to initiation of the study. […] Animals (n=12) remaining on normal chow throughout the study and administered twice-daily vehicle were used as a control group. Blood samples were collected prior to starting compound administration and 3- and 6-week post compound administration for the assessment of circulating markers. Shearwave elastography (Aixplorer Ultimate imager, Supersoinc imagine) measurements were made at Week −3, Week 0 (prior to 1st dose), Week 3 and Week 6 to assess inflammation and fibrosis progression over time. Histology was assessed following 6-weeks of drug administration which corresponded to 12 weeks on the CDAHFD. Results are provided as an average of animals per each dosing group.
Following the 12-weeks on CDAHFD, the animals were sacrificed by CO2 asphyxiation. The right lateral, medial and left lateral lobes of the liver were harvested. Sections were taken from the left lateral, right medial and right lateral lobes and fixed in formalin and processed to paraffin blocks per animal. One section of left lateral lobe per animal was cryopreserved in optimal cutting temperature (OCT) compound. The remainder of the liver from each animal was frozen and rapidly pulverized on an aluminum block cooled in liquid N2, ensuring the tissue remained frozen throughout the pulverization. The pulverized tissue was transferred and stored at −80° C. until analysis. A portion of the pulverized liver sample from each animal was processed and analyzed for gene expression markers of fibrogenesis. Rat taqman probes against αSMA and COL1A1 were all assessed using Actb as housekeeping gene on qPCR.

SREBP-1 = test: Nuclear SREBP-1 localization in liver of Western diet fed rats (Western blot); format: in vivo, rat; settings: high dose monotherapy (A 10 mg/kg QD; D 30 mg/kg BID); pooled liver samples
Method: as §1, with “NJ). […]” for “NJ).”
Nuclear and Membrane fractions were prepared by ultracentrifugation using standard methods from a portion of the pulverized liver samples, that were pooled per treatment group. Samples from the nuclear extract and the membrane fractions were analyzed by Western blotting for SREBP1. […] Nuclear SREBP1 levels were quantified using relative units and normalized to Histone 2B to control for sample loss during the nuclear fractionation and gel loading.

[3] = system: Western diet fed Sprague Dawley rats; test: Hepatic triglyceride (steatosis) in Western diet fed rats; format: in vivo, rat; settings: or both, Day 28
Method: as §1, §2
On the last day of the study (Day 28), rats were sacrificed for tissue collection after a 4 hour fast, 2 hours post-dose: two hours post-dose, blood for determining plasma analytes was collected via lateral tail vein and then the animals were sacrificed by CO2 asphyxiation. Blood was transferred to BD Microtainer tubes coated with K2EDTA (PN365974), centrifuged at 4° C. and the plasma transferred to a 96-well microtitre plate and stored at −20° C. Livers were rapidly removed, freeze-clamped in a Wollenberg clamp pre-cooled in liquid N2 individually wrapped in aluminum foil and subsequently stored at −80° C.
Tissue pulverization: Frozen livers were rapidly pulverized on an aluminum block cooled in liquid N2, ensuring the tissue remained frozen throughout the pulverization. The pulverized tissues were transferred and stored in 7 mL polypropylene conical tubes at −80° C. until analysis.
Extraction for hepatic triglyceride: Approximately 50 to 100 mg of pulverized tissue was added to a 2 mL lysing matrix D tube (MP Bio) containing 800 μL ice cold 1:1 CHCl3:MEOH. Samples were immediately extracted at 4° C. using Qiagen Tissue Lyser II (Qiagen Cat No. 85300) for 4 minutes at 30 Hz. The homogenate was then transferred to 13×100 mm glass tubes and placed on ice. The lysis tubes were then rinsed with 800 μL of 1:1 CHCl3:MeOH, vortexed for 30 seconds and added to the 13×100 mm glass tubes. While on ice, 2.4 ml of 100% CHCl3 was added to all glass vials to bring the ratio of CHCl3:MeOH to 4:2. Samples were then placed in the −20° C. freezer overnight. On the following day, 1.75 mL 1M KCl H2O was added to bring the ratio to 4:2:1.75 ratio CHCl3:MeOH:H2O. Samples were then vortexed for 30 seconds and centrifuged at 1500 rpm×15 min., at 4° C. After centrifugation, the organic phase was transferred to a fresh 13×100 mm extraction tube, dried down at 37° C. under N2 and re-suspended in 750 μL CHCl3. […]

[4] = Thermodynamic stability of crystalline forms versus water activity; format: physicochemical; settings: ambient temperature; about 0.2 = 20% RH
[5] = high dose: A 10 mg/kg QD, D 30 mg/kg BID
[6] = low dose: A 1 mg/kg QD, D 5 mg/kg BID

SMILES	hepatic lipogenic gene expression (ACC1, FASN, SCD1, SREBP-1c, PCSK9) relative to Western diet fed vehicle treated animals [1]	reduction of fasted plasma TG, relative to vehicle administered Western diet fed rats ([2]; high dose: Compound D 30 mg/kg BID monotherapy) [%]	reduction of fasted plasma TG, relative to vehicle administered Western diet fed rats ([2]; low dose: Compound D 5 mg/kg BID monotherapy) [%]	hepatic COL1A1 gene expression (αSMA and COL1A1)	hepatic αSMA gene expression (αSMA and COL1A1)	nuclear SREBP-1 localization relative to vehicle treated Western diet fed rats (SREBP-1)	reduction in steatosis (hepatic triglyceride), relative to vehicle administered Western diet fed rats [3, 5] [%]	reduction in steatosis (hepatic triglyceride), relative to vehicle administered Western diet fed rats [3, 6] [%]	water activity at which the form is thermodynamically stable [4]	increase in fasted plasma TG, relative to vehicle administered Western diet fed rats ([2]; high dose: Compound A 10 mg/kg QD monotherapy) [fold]	increase in fasted plasma TG, relative to vehicle administered Western diet fed rats ([2]; low dose: Compound A 1 mg/kg QD monotherapy) [fold]
CCOc1cccnc1Oc1cncc(-c2ncc(C(=O)N[C@H]3CCOC3)cn2)c1 [Compound D, (S)-2-(5-((3-ethoxypyridin-2-yl)oxy)pyridin-3-yl)-N-(tetrahydrofuran-3-yl)pyrimidine-5-carboxamide]	decreased expression of all of the lipogenic genes	35	20	reduced hepatic αSMA and COL1A1 gene expression	reduced hepatic αSMA and COL1A1 gene expression	reduced SREBP-1 nuclear localization	30	25			
COc1cc(C(=O)N2CCC3(CC2)CC(=O)c2c(cnn2C(C)C)C3)cc(-c2ccc(C(=O)O)cc2)n1 [Form 2 of Compound A]									> 0.2		
COc1cc(C(=O)N2CCC3(CC2)CC(=O)c2c(cnn2C(C)C)C3)cc(-c2ccc(C(=O)O)cc2)n1 [Form 1 of Compound A, 4-(4-(1-isopropyl-7-oxo-1,4,6,7-tetrahydrospiro[indazole-5,4′-piperidine]-1′-carbonyl)-6-methoxypyridin-2-yl)benzoic acid anhydrous tris salt]									< 0.2		
COc1cc(C(=O)N2CCC3(CC2)CC(=O)c2c(cnn2C(C)C)C3)cc(-c2ccc(C(=O)O)cc2)n1 [Compound A, 4-(4-(1-isopropyl-7-oxo-1,4,6,7-tetrahydrospiro[indazole-5,4′-piperidine]-1′-carbonyl)-6-methoxypyridin-2-yl)benzoic acid]	trended to further increase			reduced hepatic αSMA and COL1A1 gene expression	reduced hepatic αSMA and COL1A1 gene expression	increased nuclear localization of SREBP-1	53	36		1.7	2.4
